This is an account of results in US9708321B2, “Spiro-quinazolinone derivatives and their use as positive allosteric modulators of mGluR4” (Merck Patent GmbH, priority 2013, dated 2017).

T1 sequence (Q14833 33-912): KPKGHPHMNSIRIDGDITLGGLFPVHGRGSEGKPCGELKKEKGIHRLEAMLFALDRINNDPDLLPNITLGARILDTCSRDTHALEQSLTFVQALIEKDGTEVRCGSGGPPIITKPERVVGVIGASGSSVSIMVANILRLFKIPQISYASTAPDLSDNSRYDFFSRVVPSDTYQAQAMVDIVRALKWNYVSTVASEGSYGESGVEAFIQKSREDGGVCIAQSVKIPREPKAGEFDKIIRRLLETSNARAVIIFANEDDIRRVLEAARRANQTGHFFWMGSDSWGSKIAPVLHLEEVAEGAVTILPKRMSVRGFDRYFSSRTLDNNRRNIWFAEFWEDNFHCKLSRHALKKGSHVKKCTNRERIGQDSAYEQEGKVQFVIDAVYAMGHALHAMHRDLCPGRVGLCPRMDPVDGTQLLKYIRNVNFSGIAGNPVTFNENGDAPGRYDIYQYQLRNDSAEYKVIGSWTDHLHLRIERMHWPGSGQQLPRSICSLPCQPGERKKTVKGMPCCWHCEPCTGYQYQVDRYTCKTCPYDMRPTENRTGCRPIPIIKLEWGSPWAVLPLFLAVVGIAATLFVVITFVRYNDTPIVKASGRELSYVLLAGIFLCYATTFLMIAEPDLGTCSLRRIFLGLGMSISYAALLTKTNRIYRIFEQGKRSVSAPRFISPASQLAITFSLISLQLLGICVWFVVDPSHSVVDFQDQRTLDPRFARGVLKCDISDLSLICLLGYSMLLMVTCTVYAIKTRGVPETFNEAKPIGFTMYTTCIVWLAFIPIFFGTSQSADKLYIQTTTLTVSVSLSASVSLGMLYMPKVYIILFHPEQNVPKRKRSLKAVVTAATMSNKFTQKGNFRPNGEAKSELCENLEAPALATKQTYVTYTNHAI

This assay concerns the target T1, hmGluR4 (Homo sapiens, UniProt Q14833).
T1 construct: host or cells: HEK293T
Description: HEK-293 mGluR4 cells cAMP assay with EC20 L-Glutamate (HTRF). The assay is classed as cell-based. The following applies: positive allosteric activity at EC20 L-Glutamate, 10 μM Forskolin, HEK293T mGluR4 cells, cAMP HTRF; read-out: hrmGluR4/HEK293T-hmGluR4 (EC50). In a few lines:
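PAM mode in mGluR4 HEK293T suspension cells, glutamine-starved overnight; 10 μM forskolin (final) with EC20 L-glutamate (2.3 μM), 2000 cells/well, 30 min at 37 °C. cAMP measured by two-step HTRF after 60 min at room temperature. Basal control EC20 glutamate; EC100 400 μM glutamate (2×).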
(Changes in cAMP serve as a functional read-out for many G protein-coupled receptors.)
As for `O=C1c2ccc(Br)cc2NC2(CCN(C(c3cccc(F)c3)C(F)(F)F)CC2)N1c1ccc(OC(F)(F)F)cc1` (stereo not drawn) [Compound 43, 7′-Bromo-1-(2,2,2-trifluoro-1-(3-fluorophenyl)ethyl)-3′-(4-(trifluoromethoxy)phenyl)-1′H-spiro[piperidine-4,2′-quinazolin]-4′(3′H)-one], the EC50 was less than 1000 nM.

For `O=C1c2ccc(Br)cc2NC2(CCN(Cc3ccccc3)CC2)N1c1ccc(OC(F)(F)F)cc1` [Compound 28, 1-Benzyl-7′-bromo-3′-(4-(trifluoromethoxy)phenyl)-1′H-spiro[piperidine-4,2′-quinazolin]-4′(3′H)-one], the EC50 is less than 1000 nM. Take `CC(=O)c1cc2c(cc1Br)C(=O)N(c1ccc(OC(F)(F)F)cc1)C1(CCN(Cc3ccc(F)c(F)c3)CC1)N2` [Compound 12, 7′-Acetyl-6′-bromo-1-(3,4-difluorobenzyl)-3′-(4-(trifluoromethoxy)phenyl)-1′H-spiro[piperidine-4,2′-quinazolin]-4′(3′H)-one]: the EC50 was less than 1000 nM.

Turning to `COc1ccc(N2C(=O)c3ccc(-c4ccncc4)cc3NC23CCN(Cc2ccc(F)c(F)c2)CC3)cc1` [Compound 20, 1-(3,4-Difluorobenzyl)-3′-(4-methoxyphenyl)-7′-(pyridin-4-yl)-1′H-spiro[piperidine-4,2′-quinazolin]-4′(3′H)-one], the EC50 was less than 1000 nM. Turning to `CC(=O)c1ccc2c(c1)NC1(CCN(Cc3ccc(F)c(F)c3)CC1)N(c1ccc(OC(F)(F)F)cc1)C2=O` [Compound 77, 7′-Acetyl-1-(3,4-difluorobenzyl)-3′-(4-(trifluoromethoxy)phenyl)-1′H-spiro[piperidine-4,2′-quinazolin]-4′(3′H)-one], the EC50 was in the range of 1000 to 10000 nM. Next, `CC(c1ccc(F)c(F)c1)N1CCC2(CC1)Nc1cc(Br)ccc1C(=O)N2c1ccc(Cl)cc1` (stereo not drawn) [Compound 7, 7′-Bromo-3′-(4-chlorophenyl)-1-(1-(3,4-difluorophenyl)ethyl)-1′H-spiro[piperidine-4,2′-quinazolin]-4′(3′H)-one]: less than 1000 nM. The value for `COc1ccc(N2C(=O)c3ccccc3NC23CN(Cc2cccc4ccccc24)C3)cc1` [Compound 86, 3′-(4-Methoxyphenyl)-1-(naphthalen-1-ylmethyl)-1′H-spiro[azetidine-3,2′-quinazolin]-4′(3′H)-one] was 1000 to 10000 nM; that for `COCCOC(=O)c1ccc2c(c1)NC1(CCN(Cc3ccc(F)c(F)c3)CC1)N(c1ccc(OC(F)(F)F)cc1)C2=O` [Compound 99, 2-Methoxyethyl 1-(3,4-difluorobenzyl)-4′-oxo-3′-(4-(trifluoromethoxy)phenyl)-3′,4′-dihydro-1′H-spiro[piperidine-4,2′-quinazoline]-7′-carboxylate] was 1000 to 10000 nM; that for `COc1ccc(N2C(=O)c3ccccc3NC23CN(Cc2c(F)cc(F)cc2F)C3)cc1` [Compound 119, 3′-(4-Methoxyphenyl)-1-(2,4,6-trifluorobenzyl)-1′H-spiro[azetidine-3,2′-quinazolin]-4′(3′H)-one] was 1000 to 10000 nM.

Turning to `CN(C)Cc1ccc(-c2ccc3c(c2)NC2(CCN(Cc4ccc(F)c(F)c4)CC2)N(c2ccc(OC(F)(F)F)cc2)C3=O)o1` [Compound 74, 1-(3,4-Difluorobenzyl)-7′-(5-((dimethylamino)methyl)furan-2-yl)-3′-(4-(trifluoromethoxy)phenyl)-1′H-spiro[piperidine-4,2′-quinazolin]-4′(3′H)-one], the EC50 fell in the range of 1000 to 10000 nM.

As to `O=C1c2ccc(Br)cc2NC2(CCN(Cc3cccnc3)CC2)N1c1ccc(OC(F)(F)F)cc1` [Compound 118, 7′-Bromo-1-(pyridin-3-ylmethyl)-3′-(4-(trifluoromethoxy)phenyl)-1′H-spiro[piperidine-4,2′-quinazolin]-4′(3′H)-one], the EC50 fell in the range of 1000 to 10000 nM. For the compound `O=C1c2ccc(F)cc2NC2(CN(C(c3ccc(F)c(F)c3)C(F)(F)F)C2)N1c1ccc(OC(F)(F)F)cc1` (stereo not drawn) [Compound 78, 1-(1-(3,4-Difluorophenyl)-2,2,2-trifluoroethyl)-7′-fluoro-3′-(4-(trifluoromethoxy)phenyl)-1′H-spiro[azetidine-3,2′-quinazolin]-4′(3′H)-one], the EC50 is 1000 to 10000 nM. Next, `COc1ccc(N2C(=O)c3ccc(-c4nccs4)cc3NC23CCN(Cc2ccc(F)c(F)c2)CC3)cc1` [Compound 14, 1-(3,4-Difluorobenzyl)-3′-(4-methoxyphenyl)-7′-(thiazol-2-yl)-1′H-spiro[piperidine-4,2′-quinazolin]-4′(3′H)-one]: less than 1000 nM; `COc1ccc(N2C(=O)c3ccc(-c4ccc(CN(C)C)o4)cc3NC23CCN(Cc2ccc(F)c(F)c2)CC3)cc1` [Compound 117, 1-(3,4-Difluorobenzyl)-7′-(5-((dimethylamino)methyl)furan-2-yl)-3′-(4-methoxyphenyl)-1′H-spiro[piperidine-4,2′-quinazolin]-4′(3′H)-one]: 1000 to 10000 nM; `Cc1cc2cc(N3C(=O)c4ccc(Br)cc4NC34CCN(Cc3ccc(F)c(F)c3)CC4)ccc2o1` [Compound 2, 7′-Bromo-1-(3,4-difluorobenzyl)-3′-(2-methylbenzofuran-5-yl)-1′H-spiro[piperidine-4,2′-quinazolin]-4′(3′H)-one]: less than 1000 nM. Next, `COc1ccc(N2C(=O)c3ccccc3NC23CCN(Cc2cc(C)cc(C)c2)CC3)cc1` [Compound 105, 1-(3,5-Dimethylbenzyl)-3′-(4-methoxyphenyl)-1′H-spiro[piperidine-4,2′-quinazolin]-4′(3′H)-one]: 1000 to 10000 nM; `CCC(c1ccccc1)N1CCC2(CC1)Nc1cc(Br)ccc1C(=O)N2c1ccc(OC(F)(F)F)cc1` (stereo not drawn) [Compound 48, 7′-Bromo-1-(1-phenylpropyl)-3′-(4-(trifluoromethoxy)phenyl)-1′H-spiro[piperidine-4,2′-quinazolin]-4′(3′H)-one]: less than 1000 nM. The value for `COc1ccc(N2C(=O)c3ccc(Cl)cc3NC23CCN(Cc2cccc(C#N)c2)CC3)cc1` [Compound 75, 3-((7′-Chloro-3′-(4-methoxyphenyl)-4′-oxo-3′,4′-dihydro-1′H-spiro[piperidine-4,2′-quinazolin]-1-yl)methyl)benzonitrile] was 1000 to 10000 nM; that for `O=C1c2ccc(Br)cc2NC2(CCN(Cc3cccc4ncccc34)CC2)N1c1ccc(OC(F)(F)F)cc1` [Compound 57, 7′-Bromo-1-(quinolin-5-ylmethyl)-3′-(4-(trifluoromethoxy)phenyl)-1′H-spiro[piperidine-4,2′-quinazolin]-4′(3′H)-one] was less than 1000 nM; that for `COc1ccc(N2C(=O)c3ccccc3NC23CCN(Cc2cccc(C(F)(F)F)c2)CC3)cc1` [Compound 96, 3′-(4-Methoxyphenyl)-1-(3-(trifluoromethyl)benzyl)-1′H-spiro[piperidine-4,2′-quinazolin]-4′(3′H)-one] was 1000 to 10000 nM. As for `COCCOc1ccc(N2C(=O)c3ccc(F)cc3NC23CCN(Cc2ccc(F)c(F)c2)CC3)cc1` [Compound 106, 1-(3,4-difluorobenzyl)-7′-fluoro-3′-(4-(2-methoxyethoxyl)phenyl)-1′H-spiro[piperidine-4,2′-quinazolin]-4′(3′H)-one], the EC50 fell in the range of 1000 to 10000 nM. The value for `COc1ccc(N2C(=O)c3ccccc3NC23CN(Cc2ccccc2Cl)C3)cc1` [Compound 50, 1-(2-Chlorobenzyl)-3′-(4-methoxyphenyl)-1′H-spiro[azetidine-3,2′-quinazolin]-4′(3′H)-one] was less than 1000 nM; that for `COc1ccc(N2C(=O)c3ccc(-c4cncs4)cc3NC23CCN(Cc2ccc(F)c(F)c2)CC3)cc1` [Compound 45, 1-(3,4-Difluorobenzyl)-3′-(4-methoxyphenyl)-7′-(thiazol-5-yl)-1′H-spiro[piperidine-4,2′-quinazolin]-4′(3′H)-one] was less than 1000 nM. The value for `COc1ccc(N2C(=O)c3ccccc3NC23CN(Cc2cccc(C)c2)C3)cc1` [Compound 89, 3′-(4-Methoxyphenyl)-1-(3-methylbenzyl)-1′H-spiro[azetidine-3,2′-quinazolin]-4′(3′H)-one] was 1000 to 10000 nM; that for `COc1ccc(N2C(=O)c3ccc(-c4ccco4)cc3NC23CCN(Cc2ccc(F)c(F)c2)CC3)cc1` [Compound 11, 1-(3,4-Difluorobenzyl)-7′-(furan-2-yl)-3′-(4-methoxyphenyl)-1′H-spiro[piperidine-4,2′-quinazolin]-4′(3′H)-one] was less than 1000 nM.

On to `CC(c1ccc(F)c(F)c1)N1CCC2(CC1)Nc1cc(Br)ccc1C(=O)N2c1ccc(OC(F)(F)F)cc1` (stereo not drawn) [Compound 8, 7′-Bromo-1-(1-(3,4-difluorophenyl)ethyl)-3′-(4-(trifluoromethoxy)phenyl)-1′H-spiro[piperidine-4,2′-quinazolin]-4′(3′H)-one], for which the EC50 is less than 1000 nM. The value for `CCOC(=O)c1ccc2c(c1)NC1(CN(Cc3ccccc3Cl)C1)N(c1ccc(OC(F)(F)F)cc1)C2=O` [Compound 18, Ethyl 1-(2-chlorobenzyl)-4′-oxo-3′-(4-(trifluoromethoxy)phenyl)-3′,4′-dihydro-1′H-spiro[azetidine-3,2′-quinazoline]-7′-carboxylate] was less than 1000 nM; that for `COc1ccc(N2C(=O)c3ccccc3NC23CN(Cc2c(F)cccc2F)C3)cc1` [Compound 95, 1-(2,6-Difluorobenzyl)-3′-(4-methoxyphenyl)-1′H-spiro[azetidine-3,2′-quinazolin]-4′(3′H)-one] was 1000 to 10000 nM. The value for `O=C1c2ccc(-c3ccncn3)cc2NC2(CCN(Cc3ccc(F)c(F)c3)CC2)N1c1ccc(OC(F)(F)F)cc1` [Compound 9, 1-(3,4-Difluorobenzyl)-7′-(pyrimidin-4-yl)-3′-(4-(trifluoromethoxy)phenyl)-1′H-spiro[piperidine-4,2′-quinazolin]-4′(3′H)-one] was less than 1000 nM. The value for `COc1ccc(N2C(=O)c3ccc(Br)cc3OC23CCN(Cc2ccc(F)c(F)c2)CC3)cc1` [Compound 108, 7-Bromo-1′-(3,4-difluorobenzyl)-3-(4-methoxyphenyl)spiro[benzo[e][1,3]oxazine-2,4′-piperidin]-4(3H)-one] was 1000 to 10000 nM.
